Measurements taken from BindingDB's records for patent US9790233 (Case Western Reserve University, 2017).

Target: T1, 15-hydroxyprostaglandin dehydrogenase [NAD(+)] (Homo sapiens, UniProt P15428)
T1 sequence (P15428 whole entry): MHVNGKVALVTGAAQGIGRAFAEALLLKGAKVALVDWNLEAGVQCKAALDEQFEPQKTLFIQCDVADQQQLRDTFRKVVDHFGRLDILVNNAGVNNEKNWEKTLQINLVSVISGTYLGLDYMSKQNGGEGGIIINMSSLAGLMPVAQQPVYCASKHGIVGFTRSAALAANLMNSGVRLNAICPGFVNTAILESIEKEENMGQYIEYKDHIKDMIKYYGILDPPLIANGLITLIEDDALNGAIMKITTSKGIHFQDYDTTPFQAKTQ
Test: In Vitro Assay

CCCCC(=O)c1sc2nc(-c3nccs3)ccc2c1N [US9790233, ID SW206992]
IC50: 1.41 nM
